Data: patent US20190255073A1, “ESTERS OF 3-POLYAMINE DERIVATIVES OF BILE ACIDS FOR THE TREATMENT OF INFECTIONS” (VIRBAC, priority 2016, published 2019)
≈ marks a conversion by molar mass, not a printed value. Like-named read-outs stand apart in the source and are kept apart here.

Legend:
S. aureus ATCC25923 = assay: MIC determination by microplate dilution, S. aureus human strain; type: cell-based, Staphylococcus aureus; settings: Staphylococcus aureus, ATCC25923, Gram-positive, Mueller-Hinton medium, 24 h, 37° C.
Protocol: (§1) 1) Preparation of the Preculture
(§2) A negative control (2 mL of sterile culture medium)
(§3) A positive control (1940 μL of culture medium+40 μL of DMSO+20 μL of bacterial suspension) from a thawed biological strain (the biological strains are stored at −80° C. in glycerol).
(§4) The tubes were incubated at 37° C. for 24 hours at 100 rpm.
(§5) The microorganisms were handled under a type L2 laboratory fume cupboard and, before any handling, a UV cycle was programmed and only sterile material was used. […] The chemical compounds to be tested were prepared in a DMSO/methanol mixture (50/50) at a concentration of 5 mg/mL.
(§6) 2) Preparation of the Microplate for the Determination of the Minimum Inhibitory Concentration (MIC)
(§7) After 24 hours of incubation, a measurement of the optical density was taken using a spectrophotometer at 600 nm, collecting 100 μL of the bacterial suspension diluted in 900 μL of the sterile culture medium. This test required the use of a 96-well plate and the required volume of the microbial suspension to be seeded was calculated for an OD corresponding to a value equal to 0.01 in each well. In this plate, the first line corresponded to the negative control (195 μL of sterile culture medium in each well), the second line to the positive control (seeded culture medium supplemented with 2% of DMSO), the third line was loaded twice with bacterial suspension, 8 μL of test product were placed in each well. Thereafter, a 0.5 cascade dilution was performed from this line.
(§8) The first column served as inhibition control. A sterile filter was then placed on the microplate, allowing the passage of gases but not of contaminants. The microplate was incubated at 37° C. under a humid atmosphere for 24 hours.
(§9) NB: The medium used is Mueller-Hinton (MH) medium for bacteria. All the tests were performed in duplicate.
(§10) 4) Reading of the Results
(§11) After incubation, the filter was replaced with a transparent film, and an OD reading was then taken in an iEMS plate spectrophotometer at 620 nm. Calculation of the minimum inhibitory concentration (MIC) was performed.

S. aureus (340) = assay: MIC determination by microplate dilution, S. aureus animal strain; type: cell-based, Staphylococcus aureus; settings: Staphylococcus aureus, Gram-positive, Mueller-Hinton medium, 24 h, 37° C.
Protocol: as §1, §2, §3, §4, §5, §6, §7, §8, §9, §10, §11

S. intermedius (1051997) = assay: MIC determination by microplate dilution, S. intermedius animal strain; type: cell-based, Staphylococcus intermedius; settings: Staphylococcus intermedius, Gram-positive, Mueller-Hinton medium, 24 h, 37° C.
Protocol: as §1, §2, §3, §4, §5, §6, §7, §8, §9, §10, §11

E. faecalis ATCC29212 = assay: MIC determination by microplate dilution, E. faecalis human strain; type: cell-based, Enterococcus faecalis; settings: Enterococcus faecalis, ATCC29212, Gram-positive, Mueller-Hinton medium, 24 h, 37° C.
Protocol: as §1, §2, §3, §4, §5, §6, §7, §8, §9, §10, §11

E. coli ATCC28922 = assay: MIC determination by microplate dilution, E. coli human strain; type: cell-based, Escherichia coli; settings: Escherichia coli, ATCC28922, Gram-negative, Mueller-Hinton medium, 24 h, 37° C.
Protocol: as §1, §2, §3, §4, §5, §6, §7, §8, §9, §10, §11

E. coli (1956) = assay: MIC determination by microplate dilution, E. coli animal strain; type: cell-based, Escherichia coli; settings: Escherichia coli, Gram-negative, Mueller-Hinton medium, 24 h, 37° C.
Protocol: as §1, §2, §3, §4, §5, §6, §7, §8, §9, §10, §11

P. aeruginosa ATCC27853 = assay: MIC determination by microplate dilution, P. aeruginosa human strain; type: cell-based, Pseudomonas aeruginosa; settings: Pseudomonas aeruginosa, ATCC27853, Gram-negative, Mueller-Hinton medium, 24 h, 37° C.
Protocol: as §1, §2, §3, §4, §5, §6, §7, §8, §9, §10, §11

P. aeruginosa (1051575) [1] = assay: MIC determination by microplate dilution, P. aeruginosa animal strain; type: cell-based, Pseudomonas aeruginosa; settings: Pseudomonas aeruginosa, Gram-negative, Mueller-Hinton medium, 24 h, 37° C.
Protocol: as §1, §2, §3, §4, §5, §6, §7, §8, §9, §10, §11

CHO-K1 cells = assay: WST1 cytotoxicity test on CHO-K1 cells; type: cell-based, Chinese hamster; settings: Cricetulus griseus
Protocol: Test WST1 was used to measure the cytotoxic activity of the products. This is a colorimetric test which makes it possible to measure the viability and the degree of cell proliferation. It is based on cleavage of the colorless tetrazolium salts WST-1 (4-[3-(4-iodophenyl)-2-(4-nitrophenyl)-2H-5-tetrazolio]-1,3-benzene disulfonate) with mitochondrial dehydrogenases to the yellow-colored formazan derivative, which may be quantified by spectrophotometry at 420-480 nm.
The WST1 test was performed on Chinese hamster ovary cells. The CHO-K1 cells (ATCC, USA) are kept in culture on McCoy's 5A medium supplemented with 10% fetal calf serum, 2 mM of L-glutamine and a mixture of penicillin-streptomycin (100 U/ml: 10 μg/mL). The culture is incubated at 37° C. under an atmosphere enriched in CO2 (5%), and subcultured every two days.
The cells are transferred into 96-well plates (25 000 cells/mL) in whole McCoy's 5A medium, and maintained for 24 hours at 37° C. under a humid atmosphere enriched in CO2 (5%). Increasing concentrations of test products are added to the wells in double tests and 8 growth controls containing the cells in the medium alone are included in each series of tests. After 24 hours at 37° C. (5% CO2), the culture medium is removed, the cells are rinsed in phosphate buffer (PBS) and 50 μL of PBS containing 10% of reagent WST1 are added to each well. After 20 minutes of incubation at 37° C., the results are read by spectrophotometry at 450 nm.
The results are expressed in dose-response relationships, modeled by nonlinear regression analysis using the TableCurve software. The 50% inhibitory concentration (IC50) represents the concentration of product that is capable of reducing the cell viability by 50%.

P. aeruginosa (1051575) [2] = assay: Potentiation of the doxycycline activity at 2 μg/mL; type: cell-based, Pseudomonas aeruginosa; settings: in combination with doxycycline 2 μg/mL; 24 h, 37°
C. albicans = assay: Antifungal activity, cascade microdilution, C. albicans; type: cell-based, Candida albicans; settings: Candida albicans, 24 h, read-out: IC50 (μg/mL) C. albicans
[3] = CHO-K1, 24 h, read-out: IC50 (μg/mL) CHO
[4] = CHO-K1, read-out: IC50 (μg/mL) CHO

| SMILES | MIC (S. aureus ATCC25923) | MIC (S. aureus (340)) | MIC (S. intermedius (1051997)) | MIC (E. faecalis ATCC29212) | MIC (E. coli ATCC28922) | MIC (E. coli (1956)) | MIC (P. aeruginosa ATCC27853) | MIC (P. aeruginosa (1051575) [1]) | IC50 (CHO-K1 cells; [3]) | IC50 (CHO-K1 cells; [4]) | MIC - P. aeruginosa (1051575): content of compound of formula (I) to restore the doxycycline activity (at 2 μg/mL) (P. aeruginosa (1051575) [2]) | IC50 (C. albicans) | IC50 (CHO-K1 cells; CHO-K1, CHO (Example 7), read-out: IC50 (μg/mL) CHO) | IC50 (C. albicans; compounds as hydrochloride in water, MH medium) |
| --- | --- | --- | --- | --- | --- | --- | --- | --- | --- | --- | --- | --- | --- | --- |
| CC(C)OC(=O)CC[C@@H](C)[C@H]1CCC2C3CCC4C[C@@H](NCCCNCCCN)CC[C@]4(C)C3CC[C@@]21C (stereo partly drawn) [(16), isopropyl 3β-norspermidinolithocholate] | 3.5 mg/L (≈ 6.58 µM) | 3.5 mg/L (≈ 6.58 µM) | 7 mg/L (≈ 13.2 µM) | 3.5 mg/L (≈ 6.58 µM) | 14 mg/L (≈ 26.3 µM) | 7 mg/L (≈ 13.2 µM) | 7 mg/L (≈ 13.2 µM) | 3.5 mg/L (≈ 6.58 µM) | 13 µg/mL (≈ 24.4 µM) | 13 µg/mL (≈ 24.4 µM) | 3 mg/L | 2 µg/mL (≈ 3.76 µM) | – | – |
| COC(=O)CC[C@@H](C)[C@H]1CCC2C3CCC4C[C@@H](NCCNCCNCCNCCN)CC[C@]4(C)C3C[C@H](O)[C@@]21C (stereo partly drawn) [(19), methyl 3β-(tetraethylenepentamine)deoxycholate] | 4 mg/L (≈ 6.92 µM) | 7 mg/L (≈ 12.1 µM) | 7 mg/L (≈ 12.1 µM) | 7 mg/L (≈ 12.1 µM) | 7 mg/L (≈ 12.1 µM) | 29 mg/L (≈ 50.2 µM) | 15 mg/L (≈ 26 µM) | 7 mg/L (≈ 12.1 µM) | 40 µg/mL (≈ 69.2 µM) | 40 µg/mL (≈ 69.2 µM) | 4 mg/L | 4 µg/mL (≈ 6.92 µM) | – | – |
| CC(C)OC(=O)CC[C@@H](C)[C@H]1CCC2C3C(C[C@H](O)[C@@]21C)[C@@]1(C)CC[C@H](NCCNCCNCCNCCNCCN)CC1C[C@H]3O (stereo partly drawn) [(21), isopropyl 3β-(pentaethylenehexamine)cholate] | 33 mg/L (≈ 49.6 µM) | 33 mg/L (≈ 49.6 µM) | 16 mg/L (≈ 24.1 µM) | 33 mg/L (≈ 49.6 µM) | 33 mg/L (≈ 49.6 µM) | 66 mg/L (≈ 99.2 µM) | 66 mg/L (≈ 99.2 µM) | 66 mg/L (≈ 99.2 µM) | – | – | – | – | 105 µg/mL (≈ 158 µM) | 66 µg/mL (≈ 99.2 µM) |
| CC(C)OC(=O)CC[C@@H](C)[C@H]1CCC2C3CCC4C[C@@H](NCCNCCNCCNCCNCCN)CC[C@]4(C)C3C[C@H](O)[C@@]21C (stereo partly drawn) [(27), isopropyl 3β-(pentaethylenehexamine)deoxycholate] | 16 mg/L (≈ 24.7 µM) | > 130 mg/L | 16 mg/L (≈ 24.7 µM) | 32 mg/L (≈ 49.3 µM) | 32 mg/L (≈ 49.3 µM) | 65 mg/L (≈ 100 µM) | 65 mg/L (≈ 100 µM) | 65 mg/L (≈ 100 µM) | – | 110 µg/mL (≈ 169 µM) | 8 mg/L | 4 µg/mL (≈ 6.16 µM) | – | – |
| COC(=O)CC[C@@H](C)[C@H]1CCC2C3CCC4C[C@@H](NCCCN(C)CCCN)CC[C@]4(C)C3C[C@H](O)[C@@]21C (stereo partly drawn) [(31), methyl 3β-(bis(3-aminopropyl)methylamine)deoxycholate] | 7 mg/L (≈ 13.1 µM) | 7 mg/L (≈ 13.1 µM) | 3 mg/L (≈ 5.62 µM) | 13 mg/L (≈ 24.4 µM) | 26 mg/L (≈ 48.7 µM) | 13 mg/L (≈ 24.4 µM) | 26 mg/L (≈ 48.7 µM) | 13 mg/L (≈ 24.4 µM) | 55 µg/mL (≈ 103 µM) | 55 µg/mL (≈ 103 µM) | 3 mg/L | 2 µg/mL (≈ 3.75 µM) | – | – |
| CC(C)OC(=O)CC[C@@H](C)[C@H]1CCC2C3C(CC[C@@]21C)[C@@]1(C)CC[C@H](NCCCNCCCNCCCN)CC1C[C@@H]3O (stereo partly drawn) [(51), isopropyl 3β-norsperminoursodeoxycholate] | 15 mg/L (≈ 24.8 µM) | 15 mg/L (≈ 24.8 µM) | 4 mg/L (≈ 6.61 µM) | 62 mg/L (≈ 102 µM) | 30 mg/L (≈ 49.6 µM) | 62 mg/L (≈ 102 µM) | 30 mg/L (≈ 49.6 µM) | 30 mg/L (≈ 49.6 µM) | 30 µg/mL (≈ 49.6 µM) | – | 2 mg/L | – | – | – |
